The source made the active and inactive calls.
Legend:
[1] = biological target: Eukaryotic translation initiation factor 4E (Mus musculus, UniProt P63073); assay: blockers of eIF4G binding by eIF4E – biochemical, TR-FRET, dose response (AID 855); assay type: functional;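 note: potency for disrupting eIF4E binding to eIF4GI seen as loss of FRET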
[2] = biological target: T1, Ubiquitin-conjugating enzyme E2 N (Homo sapiens, UniProt P61088); assay type: functional
T1 sequence (P61088 whole entry): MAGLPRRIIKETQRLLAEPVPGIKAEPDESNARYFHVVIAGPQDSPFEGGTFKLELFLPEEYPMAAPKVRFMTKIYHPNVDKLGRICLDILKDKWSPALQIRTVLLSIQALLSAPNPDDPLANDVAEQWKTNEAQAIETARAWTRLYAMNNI

[3] = biological target: T1, Ubiquitin-conjugating enzyme E2 N; assay type: functional; remark: listed apart in the source
Bcl-2-related protein A1 = biological target: T2, Bcl-2-related protein A1 (Mus musculus, UniProt Q07440); assay type: functional;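 note: confirmatory dose–response counterscreen on Bfl-1, used to check hits from a UBC13 polyubiquitin inhibitor campaign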
T2 sequence (Q07440 whole entry): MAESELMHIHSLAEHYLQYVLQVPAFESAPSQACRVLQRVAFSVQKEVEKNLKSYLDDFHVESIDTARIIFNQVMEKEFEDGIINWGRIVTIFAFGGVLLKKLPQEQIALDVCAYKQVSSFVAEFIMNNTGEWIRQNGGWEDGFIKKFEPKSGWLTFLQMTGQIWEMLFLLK

Escherichia coli = assay: microbe, parasite or virus in culture
[4] = biological target: Induced myeloid leukemia cell differentiation protein Mcl-1 (Homo sapiens, UniProt Q07820); assay type: functional
[5] = biological target: T3, Voltage-gated N-type calcium channel alpha-1B subunit/Amyloid beta A4 precursor protein-binding family A member 1 (Homo sapiens, UniProt Q00975+Q02410); assay type: protein assay
[6] = biological target: T3, Voltage-gated N-type calcium channel alpha-1B subunit/Amyloid beta A4 precursor protein-binding family A member 1; assay type: protein assay; remark: listed apart in the source
[7] = biological target: Protein-tyrosine kinase 2-beta (Homo sapiens, UniProt Q14289);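 note: potency of inhibitors of PYK2 kinase phosphorylation of poly-GT substrate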
[8] = Vero E6 cell cytotoxicity, dose response, cytotoxicity control for non-replicating M. tuberculosis project, secondary assay (AID 492998); assay type: functional, VeroE6; conditions: Vero C1008
cells = assay type: functional
Nonstructural protein 1 = Nonstructural protein 1 (Influenza A virus, UniProt Q194T2); assay type: functional, Influenza A virus (A/California/07/2009(H1N1))
[9] = biological target: Peroxisome proliferator-activated receptor gamma/Nuclear receptor coactivator 3 (Homo sapiens, UniProt P37231); assay type: functional;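 note: agonist potency for raising coactivator recruitment to the receptor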
[10] = biological target: Peroxisome proliferator-activated receptor gamma/Nuclear receptor coactivator 2 (Homo sapiens, UniProt P37231); assay type: functional;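 note: agonist potency for raising coactivator recruitment to the receptor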
HeLa = assay: ATP-based viability loss in HeLa cells – cell-based, CellTiter-Glo luminescence, cherry-pick samples, cytotoxicity control for MITF activator project, dose response (AID 540259); assay type: functional; conditions: Homo sapiens
[11] = biological target: Peroxisome proliferator-activated receptor gamma/Nuclear receptor coactivator 1 (Homo sapiens, UniProt P37231); assay type: functional;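 note: agonist potency as compounds enhance coactivator SRC-1 recruitment to PPARgamma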
Cytochrome P450 2C9 = Cytochrome P450 2C9 (Homo sapiens, UniProt P11712)
[12] = HIV-1 Vif–A3G interaction blockers – biochemical, TR-FRET, GST-Vif 1-94, biotin-A3G peptide, dose response retest, primary screen (AID 1117319); assay type: functional;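 note: TR-FRET signal of purified GST-Vif binding a biotinylated A3G peptide; inhibitors lower the FRET signal by blocking Vif and A3G binding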
[13] = biological target: Voltage-dependent T-type calcium channel subunit alpha-1H (Homo sapiens, UniProt O95180); assay type: functional;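 note: channel activity triggered by adding a high calcium stimulation buffer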
[14] = biological target: T4, Rac GTPase-activating protein 1 (Homo sapiens, UniProt Q9H0H5); assay: blockers of MgcRacGAP-driven Rac1 GTP hydrolysis – biochemical, ADP Hunter fluorescence, primary and confirmatory, confirmation (AID 624330); assay type: functional
T4 sequence (Q9H0H5 whole entry): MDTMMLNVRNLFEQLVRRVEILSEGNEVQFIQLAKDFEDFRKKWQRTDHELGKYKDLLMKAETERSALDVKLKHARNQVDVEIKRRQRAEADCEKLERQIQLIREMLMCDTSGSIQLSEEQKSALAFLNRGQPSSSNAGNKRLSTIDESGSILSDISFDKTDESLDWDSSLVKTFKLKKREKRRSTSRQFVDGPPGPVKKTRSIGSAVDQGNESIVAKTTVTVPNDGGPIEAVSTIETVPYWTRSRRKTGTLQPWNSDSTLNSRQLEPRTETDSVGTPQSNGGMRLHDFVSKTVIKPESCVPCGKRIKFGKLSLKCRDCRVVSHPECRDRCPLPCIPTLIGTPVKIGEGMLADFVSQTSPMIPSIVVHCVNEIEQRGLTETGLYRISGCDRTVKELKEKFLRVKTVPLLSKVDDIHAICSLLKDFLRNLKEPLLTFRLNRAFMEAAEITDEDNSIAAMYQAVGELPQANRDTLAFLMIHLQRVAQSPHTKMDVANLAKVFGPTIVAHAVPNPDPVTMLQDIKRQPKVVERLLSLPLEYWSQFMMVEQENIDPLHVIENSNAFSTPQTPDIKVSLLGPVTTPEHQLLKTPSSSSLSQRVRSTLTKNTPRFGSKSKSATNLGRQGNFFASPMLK

[15] = THP-1 cell cytotoxicity, dose response, cytotoxicity control for non-replicating M. tuberculosis project (AID 489025); assay type: functional
[16] = test system: Streptococcus sp. 'group A'; assay: Streptococcus pyogenes SK(-)GAS viability under kanamycin – luminescence, BacTiterGlo, confirmation, counter-screen for streptokinase expression inhibitor project, dose response (AID 1900); assay type: functional, organism-based
Streptococcus = assay: GAS UMAA2166 growth inhibition – luminescence, BacTiterGlo, counter-screen for streptokinase expression inhibitor project, dose response (AID 1915); assay type: functional, organism-based;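 note: potency for reduction of bacterial viability or growth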
[17] = NIH-3T3 fibroblast cytotoxicity, dose response, cytotoxicity control, cell-based, fluorescence, Alamar Blue, secondary assay (AID 2327); assay type: functional;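 note: NIH-3T3 mouse fibroblasts cultured with fluconazole at 8 µg/mL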
[18] = biological target: T5, Adenosylmethionine-8-amino-7-oxononanoate aminotransferase (Mycobacterium tuberculosis, UniProt P9WQ81); assay: Mycobacterium tuberculosis BioA enzyme inhibitor Measured in Biochemical System Using Plate Reader - 2163-02_Inhibitor_Dose_CherryPick_Activity.; assay type: functional, Mycobacterium tuberculosis UT205
T5 sequence (P9WQ81 whole entry): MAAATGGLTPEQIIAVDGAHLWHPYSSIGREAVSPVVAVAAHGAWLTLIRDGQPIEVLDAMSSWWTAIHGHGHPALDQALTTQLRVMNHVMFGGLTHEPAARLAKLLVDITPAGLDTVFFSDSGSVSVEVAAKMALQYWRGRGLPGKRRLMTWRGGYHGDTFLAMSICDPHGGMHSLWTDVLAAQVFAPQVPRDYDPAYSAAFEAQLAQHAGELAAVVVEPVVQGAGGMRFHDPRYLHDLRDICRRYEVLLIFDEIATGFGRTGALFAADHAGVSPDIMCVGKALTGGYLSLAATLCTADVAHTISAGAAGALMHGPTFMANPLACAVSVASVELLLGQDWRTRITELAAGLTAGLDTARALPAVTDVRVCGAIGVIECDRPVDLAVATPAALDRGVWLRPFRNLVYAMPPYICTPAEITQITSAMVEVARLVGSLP

[19] = fluconazole-exposed Candida albicans growth modulators – fluorescence, retest, confirmation (AID 2467); assay type: functional, cell-based
[20] = Trypanosoma cruzi growth suppression in host cells – NIH3T3 host cells, beta-gal luminescence, confirmation (AID 2044); assay type: functional, cell-based;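 note: intracellular parasites grown in NIH/3T3 mouse fibroblasts as host cells; luminescent beta-galactosidase reporter signal from transgenic T. cruzi replicating inside host cells; inhibitors lower the luminescence signal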
[21] = NIH3T3 cell viability loss – ATP luminescence, mouse fibroblasts, counter-screen, dose response (AID 2010); assay type: functional, cell-based;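 note: cells exposed to compound for about 90 hours before reading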

Sequence of Protein-tyrosine kinase 2-beta (Q14289 whole entry): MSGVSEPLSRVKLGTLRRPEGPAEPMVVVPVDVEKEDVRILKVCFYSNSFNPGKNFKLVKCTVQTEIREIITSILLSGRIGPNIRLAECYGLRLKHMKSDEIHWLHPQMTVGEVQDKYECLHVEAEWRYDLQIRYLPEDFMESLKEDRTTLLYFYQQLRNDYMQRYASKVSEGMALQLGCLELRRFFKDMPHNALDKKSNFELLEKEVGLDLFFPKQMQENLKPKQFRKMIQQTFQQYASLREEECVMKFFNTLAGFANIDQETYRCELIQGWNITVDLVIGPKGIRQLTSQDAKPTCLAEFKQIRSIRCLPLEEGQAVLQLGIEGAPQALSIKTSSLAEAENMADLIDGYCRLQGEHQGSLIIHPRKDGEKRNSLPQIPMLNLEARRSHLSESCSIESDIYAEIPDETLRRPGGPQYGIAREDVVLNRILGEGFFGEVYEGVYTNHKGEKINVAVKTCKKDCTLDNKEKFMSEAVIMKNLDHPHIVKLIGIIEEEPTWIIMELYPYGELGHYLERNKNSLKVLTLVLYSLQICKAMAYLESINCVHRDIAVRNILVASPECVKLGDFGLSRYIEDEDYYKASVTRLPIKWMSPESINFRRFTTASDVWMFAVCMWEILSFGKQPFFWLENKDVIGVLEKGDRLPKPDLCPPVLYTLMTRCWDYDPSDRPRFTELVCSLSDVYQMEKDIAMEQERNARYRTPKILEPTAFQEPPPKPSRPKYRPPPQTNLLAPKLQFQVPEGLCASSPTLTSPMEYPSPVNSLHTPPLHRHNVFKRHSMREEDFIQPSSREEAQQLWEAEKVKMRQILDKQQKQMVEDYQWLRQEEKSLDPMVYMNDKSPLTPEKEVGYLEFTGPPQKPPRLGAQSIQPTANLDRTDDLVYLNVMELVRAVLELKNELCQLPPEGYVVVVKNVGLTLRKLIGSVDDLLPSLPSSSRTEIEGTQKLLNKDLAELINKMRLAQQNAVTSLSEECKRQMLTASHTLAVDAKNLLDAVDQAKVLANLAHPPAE
Sequence of Eukaryotic translation initiation factor 4E (P63073 whole entry): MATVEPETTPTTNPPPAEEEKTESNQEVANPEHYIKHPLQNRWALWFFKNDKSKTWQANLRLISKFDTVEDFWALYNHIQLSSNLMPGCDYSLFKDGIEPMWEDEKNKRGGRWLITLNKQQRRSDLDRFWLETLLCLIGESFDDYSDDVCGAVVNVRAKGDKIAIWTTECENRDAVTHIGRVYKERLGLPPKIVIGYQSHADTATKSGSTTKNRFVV
T3 sequence (Q00975 whole entry): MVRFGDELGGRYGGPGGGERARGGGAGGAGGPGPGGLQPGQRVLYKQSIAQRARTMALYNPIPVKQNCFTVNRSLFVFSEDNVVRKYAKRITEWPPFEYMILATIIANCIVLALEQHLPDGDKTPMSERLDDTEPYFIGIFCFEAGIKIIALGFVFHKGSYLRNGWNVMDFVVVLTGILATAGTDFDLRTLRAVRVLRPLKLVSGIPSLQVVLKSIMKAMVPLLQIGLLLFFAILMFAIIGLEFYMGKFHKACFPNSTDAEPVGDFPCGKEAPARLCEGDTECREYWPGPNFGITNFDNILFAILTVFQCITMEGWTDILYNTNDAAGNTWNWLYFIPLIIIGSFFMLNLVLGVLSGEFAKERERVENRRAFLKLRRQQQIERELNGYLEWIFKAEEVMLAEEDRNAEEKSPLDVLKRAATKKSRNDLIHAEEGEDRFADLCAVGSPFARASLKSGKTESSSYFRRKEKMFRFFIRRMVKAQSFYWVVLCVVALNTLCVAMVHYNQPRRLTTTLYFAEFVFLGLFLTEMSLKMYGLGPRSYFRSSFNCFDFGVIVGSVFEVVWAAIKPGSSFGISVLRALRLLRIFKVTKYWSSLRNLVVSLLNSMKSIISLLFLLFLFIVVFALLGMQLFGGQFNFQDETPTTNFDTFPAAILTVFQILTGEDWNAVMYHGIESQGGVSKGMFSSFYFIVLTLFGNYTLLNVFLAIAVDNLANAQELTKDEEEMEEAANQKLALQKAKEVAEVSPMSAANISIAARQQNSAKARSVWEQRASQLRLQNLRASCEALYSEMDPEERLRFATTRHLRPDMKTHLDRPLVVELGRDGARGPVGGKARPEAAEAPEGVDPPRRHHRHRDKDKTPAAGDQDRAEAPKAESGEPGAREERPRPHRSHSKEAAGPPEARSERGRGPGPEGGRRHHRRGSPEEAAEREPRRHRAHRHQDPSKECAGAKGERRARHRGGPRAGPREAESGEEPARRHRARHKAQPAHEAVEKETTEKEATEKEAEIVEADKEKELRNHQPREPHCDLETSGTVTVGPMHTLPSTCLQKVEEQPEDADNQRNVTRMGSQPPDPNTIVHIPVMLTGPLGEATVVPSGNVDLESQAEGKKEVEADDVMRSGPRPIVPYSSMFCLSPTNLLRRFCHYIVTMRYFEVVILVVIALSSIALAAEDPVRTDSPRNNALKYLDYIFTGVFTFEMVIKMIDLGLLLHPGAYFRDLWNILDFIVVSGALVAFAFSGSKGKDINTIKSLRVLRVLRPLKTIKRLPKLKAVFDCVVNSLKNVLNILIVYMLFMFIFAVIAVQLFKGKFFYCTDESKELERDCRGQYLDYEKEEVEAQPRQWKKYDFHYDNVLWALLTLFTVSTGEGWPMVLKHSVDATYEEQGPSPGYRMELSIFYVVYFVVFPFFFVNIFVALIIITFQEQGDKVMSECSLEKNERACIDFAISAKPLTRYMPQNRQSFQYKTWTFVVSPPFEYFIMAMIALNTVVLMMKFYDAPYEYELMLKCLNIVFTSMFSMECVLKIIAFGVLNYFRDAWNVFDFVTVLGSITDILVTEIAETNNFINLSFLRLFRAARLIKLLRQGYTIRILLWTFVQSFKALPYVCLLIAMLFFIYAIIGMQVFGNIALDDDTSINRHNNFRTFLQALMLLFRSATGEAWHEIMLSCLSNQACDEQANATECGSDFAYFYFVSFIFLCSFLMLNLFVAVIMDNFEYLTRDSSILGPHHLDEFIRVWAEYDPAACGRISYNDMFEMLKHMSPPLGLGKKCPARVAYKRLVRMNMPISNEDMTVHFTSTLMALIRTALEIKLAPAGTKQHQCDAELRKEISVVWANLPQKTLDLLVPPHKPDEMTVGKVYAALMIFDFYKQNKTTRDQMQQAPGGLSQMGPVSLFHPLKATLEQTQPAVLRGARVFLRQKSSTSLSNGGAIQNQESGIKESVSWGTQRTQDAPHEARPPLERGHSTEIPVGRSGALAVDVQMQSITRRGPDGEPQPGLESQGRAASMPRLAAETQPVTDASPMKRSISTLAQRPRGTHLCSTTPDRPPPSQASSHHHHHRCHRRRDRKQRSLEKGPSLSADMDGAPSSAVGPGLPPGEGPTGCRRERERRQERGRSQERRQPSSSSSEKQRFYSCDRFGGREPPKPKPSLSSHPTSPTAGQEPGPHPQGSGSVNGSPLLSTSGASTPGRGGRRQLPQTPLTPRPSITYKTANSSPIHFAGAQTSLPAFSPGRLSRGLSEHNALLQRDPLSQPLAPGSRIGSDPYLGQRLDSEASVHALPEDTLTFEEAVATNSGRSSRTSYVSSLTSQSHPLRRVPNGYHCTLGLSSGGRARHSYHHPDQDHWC
T3 sequence (Q02410 whole entry): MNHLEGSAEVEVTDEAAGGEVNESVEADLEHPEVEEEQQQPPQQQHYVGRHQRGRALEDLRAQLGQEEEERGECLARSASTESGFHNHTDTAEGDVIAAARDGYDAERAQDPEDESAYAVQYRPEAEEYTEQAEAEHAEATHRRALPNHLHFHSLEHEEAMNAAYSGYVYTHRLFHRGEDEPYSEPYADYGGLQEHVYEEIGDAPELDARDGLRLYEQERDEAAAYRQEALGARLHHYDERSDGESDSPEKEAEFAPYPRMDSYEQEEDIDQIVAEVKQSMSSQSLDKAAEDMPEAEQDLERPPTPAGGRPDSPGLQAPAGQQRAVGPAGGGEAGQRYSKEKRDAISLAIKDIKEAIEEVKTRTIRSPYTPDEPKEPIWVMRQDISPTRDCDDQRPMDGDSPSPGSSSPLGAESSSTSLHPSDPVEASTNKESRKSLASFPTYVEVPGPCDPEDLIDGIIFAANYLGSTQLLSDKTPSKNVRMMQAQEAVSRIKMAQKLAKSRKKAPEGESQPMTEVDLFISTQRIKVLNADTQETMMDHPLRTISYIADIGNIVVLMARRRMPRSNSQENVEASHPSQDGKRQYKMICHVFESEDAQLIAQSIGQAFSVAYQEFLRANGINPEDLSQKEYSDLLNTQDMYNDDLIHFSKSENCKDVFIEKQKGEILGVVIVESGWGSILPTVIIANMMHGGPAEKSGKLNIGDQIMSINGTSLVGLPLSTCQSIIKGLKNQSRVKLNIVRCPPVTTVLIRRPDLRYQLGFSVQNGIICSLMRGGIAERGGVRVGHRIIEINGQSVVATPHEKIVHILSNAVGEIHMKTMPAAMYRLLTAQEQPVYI
Sequence of Induced myeloid leukemia cell differentiation protein Mcl-1 (Q07820 whole entry): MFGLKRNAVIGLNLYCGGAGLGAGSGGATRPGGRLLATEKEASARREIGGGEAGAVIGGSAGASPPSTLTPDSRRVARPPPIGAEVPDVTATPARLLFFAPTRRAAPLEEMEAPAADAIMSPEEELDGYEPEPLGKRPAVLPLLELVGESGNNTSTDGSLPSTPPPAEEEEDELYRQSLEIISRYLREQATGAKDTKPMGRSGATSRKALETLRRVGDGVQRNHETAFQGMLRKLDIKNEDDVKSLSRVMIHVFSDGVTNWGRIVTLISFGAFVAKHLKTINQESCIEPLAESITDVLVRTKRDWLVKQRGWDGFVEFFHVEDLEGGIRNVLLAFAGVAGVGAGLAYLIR
Sequence of Nonstructural protein 1 (Q194T2 whole entry): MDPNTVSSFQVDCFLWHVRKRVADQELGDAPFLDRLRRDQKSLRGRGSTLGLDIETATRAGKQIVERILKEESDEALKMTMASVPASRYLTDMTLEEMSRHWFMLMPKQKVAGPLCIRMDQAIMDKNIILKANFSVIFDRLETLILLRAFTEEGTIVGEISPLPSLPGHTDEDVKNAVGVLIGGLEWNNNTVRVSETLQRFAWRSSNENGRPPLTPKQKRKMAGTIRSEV

CCCCCC(=O)NC(N=C(S)NC1CCS(=O)(=O)C1)C(Cl)(Cl)Cl (stereo not drawn)
IC50 [1]: > 64 µM (inactive)

Cc1nc2ccccc2n1C1CCN(CC(=O)Nc2ccccc2Br)CC1 [ASN06356088]
IC50 [2]: > 20 µM (inactive) | IC50 [3]: 16.4 µM (active) | IC50 (Bcl-2-related protein A1): > 20 µM (inactive)

OC1(c2ccccc2Cl)NN=C2CCCCCN21 (stereo not drawn)
AC50 (Escherichia coli): 26 µM (active)

CCC1=NNc2cccc3c(OC)ccc1c23
IC50 [4]: 8.79 µM (not active) | IC50 [5]: 0.521 µM (active) | IC50 [6]: 0.586 µM (active) | IC50 [7]: 2.15 µM (active)

O=C(CSc1nnc(CNc2ccccc2)o1)N1CCc2ccccc21
IC50 [1]: > 64 µM (inactive)

CC(C)(C)c1ccc(-c2nc(C#N)c(NCCCn3ccnc3)o2)cc1
CC50 [8]: > 20 µM (active) | IC50 (cells): 25.4 µM (active)

Cc1ccc2nsnc2c1S(=O)(=O)Nc1cccc2nsnc12
IC50 [7]: 6.7 µM (active)

Cc1ccc2c(c1)C1CN(C)CCC1N2S(=O)(=O)c1ccc(Oc2ccc([N+](=O)[O-])cc2)cc1 (stereo not drawn)
IC50 (Nonstructural protein 1): > 100 µM (active)

Cc1ccccc1NC(=O)Cn1nnc2c(cnn2-c2ccc(F)cc2)c1=O
IC50 [1]: > 64 µM (inactive)

O=C(Nc1ccc(N2CCCCC2)cc1)c1cncc(Br)c1
EC50 [9]: > 79.4 µM (not active) | EC50 [10]: > 79.4 µM (not active) | AC50 (HeLa): 50.2 µM (active) | EC50 [11]: > 79.4 µM (not active) | AC50 (Cytochrome P450 2C9): 14.1 µM (inconclusive)

O=C(O)c1cccc(NCc2ccncc2)c1
IC50 [12]: > 100 µM (active)

O=C(Nc1ccc2c(c1)OCCO2)C1CCC1
IC50 [12]: > 100 µM (active)

CCCCn1nnc(NC(=O)c2ccc(-c3cccc(Cl)c3)o2)n1
EC50 [13]: 4.23 µM (active) | IC50 [12]: > 100 µM (active)

C#CCOCCOCCOCCNc1nc(N2CCN(C(=O)[C@H](CCCCN)n3cc(CN)nn3)CC2)nc(N2CCN(C(=O)[C@H](CCCCN)n3cc(CN)nn3)CC2)n1
IC50 [14]: 203 µM (active) | IC50 [2]: 5.15 µM (active) | IC50 [3]: 5.36 µM (active) | IC50 (Bcl-2-related protein A1): > 20 µM (inactive)

CC(C)CCNC(=O)NC(=O)COC(=O)/C=C/c1cnc2ccccc2n1
EC50 [9]: 35.9 µM (not active) | EC50 [10]: 32 µM (not active) | EC50 [11]: 49.5 µM (not active)

Cc1cc(Nc2ccccc2)n(-c2nc3ccccc3[nH]2)n1
CC50 [8]: 18.8 µM (active) | CC50 [15]: 38 µM (active) | IC50 (cells): 1.07 µM (active) | EC50 [16]: 2.16 µM (active) | EC50 (Streptococcus): 5.5 µM (active)

CN1CCC(O)(c2cccs2)C(C(=O)c2cccs2)C1 (stereo not drawn)
CC50 [8]: > 20 µM (active) | IC50 (cells): 15.4 µM (active)

CN(C)c1nc(SCC#N)nc(N2CCOCC2)n1
AC50 (Escherichia coli): 66.1 µM (active)

CCOC(=O)CNC(=O)c1sc2ncnc(N3CCc4ccccc4C3)c2c1C
EC50 [17]: > 150 µM (inactive) | AC50 [18]: 4.06 µM (active) | EC50 [19]: 3.42 µM (active) | IC50 [7]: 41.7 µM (not active)

Cc1cc(C)c2sc(N(CCCN(C)C)C(=O)c3ccc(S(=O)(=O)N(C)C4CCCCC4)cc3)nc2c1
EC50 [20]: 0.385 µM (active) | IC50 [2]: 10 µM (active) | IC50 [3]: 10.6 µM (active) | EC50 [21]: > 30 µM (not active) | IC50 (Bcl-2-related protein A1): > 20 µM (inactive)
